Results published in US9156860B2, “Boron-containing small molecules” (Anacor Pharmaceuticals, Inc., priority 2011, dated 2015).

Key:
[1] = Tolerability of oral treatment in dogs; assay type: in vivo, beagle dogs
Description: (§1) The therapeutic (knockdown) and residual efficacy of 7, administered orally at a point dosages of 5 and 25 mg/kg bodyweight, was evaluated against adult American dog tick (D. variabilis) and cat flea (C. felis) infestations on dogs. Sixteen (16) male and female beagle dogs were allocated to one of four treatment groups: Untreated control group (n=4 dogs); 7, 5 mg/kg liquid oral dosage form (n=4 dogs); 7, 25 mg/kg liquid oral dosage form (n=4 dogs); and 7, 25 mg/kg solid oral dosage form. Liquid dosage forms were prepared by dissolving 7 in a solution of 55% polyethylene glycol-300, 35% propylene glycol and 10% water at 25 mg/ml. Solid oral dosage form was prepared by thoroughly mixing 7 with microcrystalline cellulose and croscarmellose sodium (50:47:3, w/w) and placing into size 00 gelatin capsules. On Day 0, all dogs were orally administered 7 at the prescribed point dosages. Twenty-four (24) hours before treatment (Day −1), all dogs were infested with approximately 50 unfed, adult-stage American dog ticks (D. variabilis; approximately 50% male and 50% female). On Day 2, approximately 48 hours after treatment, ticks were removed and counts were conducted to determine the number and life-status classification of ticks present on all dogs (normal, moribund or dead; attached or detached). For all groups, dogs were re-infested with approximately 50 unfed, adult D. variabilis ticks on Days 5 and 12, with tick classification, counts and removal on Days 7 and 14 (approximately 48 hours after each infestation). For negative control and 7 (25 mg/kg solid oral dosage form) groups, dogs were re-infested with approximately 50 unfed, adult D. variabilis ticks on Days 19 and 28, with tick classification, counts and removal on Days 21 and 30. Immediately following removal of ticks on Day 30, dogs in the negative control and 7 (25 mg/kg solid oral dosage form) groups were infested with approximately 100 unfed, adult cat fleas (C. felis). Flea counts were conducted approximately 48 hours later, on Day 32.
(§2) The therapeutic (knockdown) and residual efficacy of 7 and 8, each administered orally at a point dose of either 25 mg/kg or 50 mg/kg bodyweight, was evaluated against adult tick (Dermacentor variabilis and Rhipicephalus sanguineus) infestations on dogs. Twenty (20) male and female beagle dogs were allocated to one of five treatment groups, four (4) dogs per group: Untreated control; 7, 25 mg/kg; 7, 50 mg/kg; 8, 25 mg/kg; and 8, 50 mg/kg. On Day −1, all dogs were infested with approximately 50 unfed, adult D. variabilis ticks. On Day 0, dogs were orally administered gelatin capsules containing either 7 or 8 (50% technical active, 47% microcrystalline cellulose and 3% croscarmellose sodium, w/w) so as to achieve the desired point dosages. Ticks were counted and classified on all dogs, but not removed, on Day 1 (approximately 24 hours after treatment). On Day 2, approximately 48 hours after treatment, ticks were counted, classified and removed. Dogs were re-infested with the same number of D. variabilis ticks on Days 5, 12 and 19 with corresponding 48 hour post-infestation tick counts on Days 7, 14 and 21. Dogs were infested with approximately 50 unfed, adult brown dog ticks (Rhipicephalus sanguineus; approximately 50% male and 50% female) on Days 15 and 28, with corresponding 48 hour post-infestation tick counts on Days 17 and 30. GM percent efficacy of treatments against both tick species was calculated using the following formula: […]
The efficacy of 7, administered orally at a point dose of 25 mg/kg bodyweight, was evaluated against adult tick (Dermacentor variabilis) infestations. Twelve (12) male and female beagle dogs were allocated to three treatment groups: Untreated, negative control A; 7 group B; and 7 group C (n=4 dogs per group). Dogs were infested with approximately 50 unfed, adult D. variabilis ticks on Days −1, 5, 12, 19 and 28. […]

[2] = system: cat flea (Ctenocephalides felis); experiment: Example 4: efficacy against cat flea infestations on dogs; assay type: in vivo; conditions: 25 mg/kg oral, solid dosage form, Day 32
Description: The therapeutic (knockdown) and residual efficacy of 7, administered orally at a point dosages of 5 and 25 mg/kg bodyweight, was evaluated against adult American dog tick (D. variabilis) and cat flea (C. felis) infestations on dogs. Sixteen (16) male and female beagle dogs were allocated to one of four treatment groups: Untreated control group (n=4 dogs); 7, 5 mg/kg liquid oral dosage form (n=4 dogs); 7, 25 mg/kg liquid oral dosage form (n=4 dogs); and 7, 25 mg/kg solid oral dosage form. Liquid dosage forms were prepared by dissolving 7 in a solution of 55% polyethylene glycol-300, 35% propylene glycol and 10% water at 25 mg/ml. Solid oral dosage form was prepared by thoroughly mixing 7 with microcrystalline cellulose and croscarmellose sodium (50:47:3, w/w) and placing into size 00 gelatin capsules. On Day 0, all dogs were orally administered 7 at the prescribed point dosages. […]
The total number of live ticks or fleas (normal plus moribund classification) present on each dog was determined for each interval, and this number was transformed using the natural logarithm transformation plus one (Ln count+1); addition of one to each count served to adjust for counts that were zero. […] GM percent efficacy of treatments was calculated using the following formula: […]

[3] = system: brown dog tick (Rhipicephalus sanguineus); experiment: Example 5: efficacy against brown dog tick infestations on dogs; assay type: in vivo
Description: as §2

[4] = system: adult American dog tick (Dermacentor variabilis); experiment: Example 4: efficacy against adult American dog tick infestations on dogs; assay type: in vivo; conditions: for therapeutic efficacy: 24 hour post-treatment
Description: as §1, with “On Day 2, approximately 48 hours after treatment, ticks were removed and counts were conducted to determine the number and life-status classification of ticks present on all dogs (normal, moribund or dead; attached or detached).” left out
The total number of live ticks or fleas (normal plus moribund classification) present on each dog was determined for each interval, and this number was transformed using the natural logarithm transformation plus one (Ln count+1); addition of one to each count served to adjust for counts that were zero. Geometric mean (GM) group tick or flea counts were obtained via back-transformation of group mean transformed counts and subtracting one. The negative control group was used for comparison to 7 groups for the calculation of percent efficacy (% reduction in live tick or flea counts). GM percent efficacy of treatments was calculated using the following formula: […]

[5] = 5 mg/kg oral, liquid dosage form, Day 2
[6] = 5 mg/kg oral, liquid dosage form, Day 7
[7] = 5 mg/kg oral, liquid dosage form, Day 14

CC1(C)OB(O)c2ccc(C3=NOC(c4cc(Cl)c(Cl)c(Cl)c4)(C(F)(F)F)C3)cc21 (racemic) [Compound 7, 3,3-Dimethyl-5-(5-(3,4,5-trichlorophenyl)-5-(trifluoromethyl)-4,5-dihydroisoxazol-3-yl)benzo[c][1,2]oxaborol-1(3H)-ol]
tolerability ([1]; oral 25 mg/kg, Example 7): well tolerated | tolerability ([1]; oral 50 mg/kg, Example 6): well tolerated | tolerability ([1]; oral 5 or 25 mg/kg, Example 4): well tolerated | tolerability ([1]; oral 25 or 50 mg/kg, Example 5): well tolerated | Geometric mean group live flea count [2]: 3.9 | % efficacy ([3]; 25 mg/kg oral capsule, Day 17): (75.0) % | Geometric mean group live tick count ([3]; 25 mg/kg oral capsule, Day 17): 8.0 | Geometric mean group live tick count ([3]; 50 mg/kg oral capsule, Day 17): 1.6 | % efficacy ([3]; 50 mg/kg oral capsule, Day 30): (63.9) % | Geometric mean group live tick count ([3]; 50 mg/kg oral capsule, Day 30): 13.4 | therapeutic and residual efficacy ([4]; 5 mg/kg liquid oral dosage form, all intervals): < 70% | % efficacy [4, 5]: (68.2) % | Geometric mean group live tick count [4, 5]: 10.6 | % efficacy [4, 6]: (0.0) % | Geometric mean group live tick count [4, 6]: 36.5 | % efficacy [4, 7]: (0.0) % | Geometric mean group live tick count [4, 7]: 36.8 | therapeutic efficacy ([4]; 25 mg/kg oral, liquid dosage form): 100% | Geometric mean group live tick count ([4]; 25 mg/kg oral, liquid dosage form, Day 2): 0.0 | Geometric mean group live tick count ([4]; 25 mg/kg oral, liquid dosage form, Day 7): 2.6 | Geometric mean group live tick count ([4]; 25 mg/kg oral, liquid dosage form, Day 14): 16.9 | therapeutic efficacy ([4]; 25 mg/kg oral, solid dosage form): 100% | Geometric mean group live tick count ([4]; 25 mg/kg oral, solid dosage form, Day 2): 0.0 | Geometric mean group live tick count ([4]; 25 mg/kg oral, solid dosage form, Day 7): 0.7 | Geometric mean group live tick count ([4]; 25 mg/kg oral, solid dosage form, Day 14): 6.3 | Geometric mean group live tick count ([4]; 25 mg/kg oral, solid dosage form, Day 21): 6.8 | Geometric mean group live tick count ([4]; 25 mg/kg oral, solid dosage form, Day 30): 10.7
